From patent US10111853B2, “Compounds, compositions, and methods for the treatment of cancers” (PLACON THERAPEUTICS, INC., priority 2012, dated 2018)

Experiments:
[1] = Drug load (gravimetric, GF-AAS) and encapsulation efficiency of nanoparticles; type: physicochemical; conditions: for Max DL, %: maximum drug load; for Max DL, % / Max EE, %: according to Example 11; for Max EE, %: maximum encapsulation
Method: The polymer composition was varied by the ratio of the PLA or PLGA polymer to PLA-PEG or PLGA-PEG copolymer, as well as the PLA molecular weight (25-109 kDa). […] The oil phase was then slowly added to the continuously stirred aqueous phase containing an emulsifier (such as polysorbate 80 a.k.a. Tween® 80) at 10/90% or 20/80% v/v oil/water ratio and a coarse emulsion was prepared using a rotor-stator homogenizer or an ultrasound bath. The course emulsion was then processed through a high-pressure homogenizer (operated at 5,000 or 10,000 psi) for N=2 or 4 passes to form a nanoemulsion. In process (2) the polymers and the drug were dissolved in an organic solvent miscible with water (such as acetone) and added slowly to a continuously stirred aqueous phase with or without a stabilizer (such as polysorbate 80). In both processes (1) and (2) the nanoemulsion formed was quenched (by 5- or 10-fold dilution with cold (0-5° C.) or room temperature deionized water) to remove the major portion of the organic solvent resulting in hardening of the emulsion droplets and formation of a nanoparticle suspension, which was then concentrated and purified with deionized water containing or not surfactants using tangential flow filtration (500 kDa MWCO, mPES membranes).
The actual drug load was determined gravimetrically by transferring 1 mL of the nanoparticle suspension to a 4 mL glass vial and drying under vacuum on a Rotavapor® to determine the amount of total remaining solids. The drug content was then determined by reconstituting the dried sample in an organic solvent (such as N′N′-dimethylformamide) and measuring the total amount of platinum using graphite furnace atomic adsorption spectroscopy (GF-AAS). Encapsulation efficiency was calculated as the ratio between the actual and the theoretical drug load. The yield was determined based on the ratio between the encapsulated and used compound amounts. In-vitro release was studied by incubating the nanoparticle suspension in phosphate buffered saline (PBS) containing a solubilizer such as 1% hydroxypropyl beta cyclodextrin for 24 h at 37° C. mixed continuously in a water shaking bath. Samples were taken at different time points and spun with an ultracentrifuge at 1,000,000×g to separate the nanoparticles from the dissolution medium. The supernatant was then analyzed using GF-AAS or HPLC to determine the active content as a function of time.

[2] = Mouse PK/PD study, tumor platinum levels by ICP-MS; parameters: species or system nude mice; conditions: in vivo, iv, 4 mg/kg
Method: To examine the ability of compounds to accumulate in tumors, a murine cancer model was used. Animals were inoculated with 5×10^5 H460 […] lung cancer cells via subcutaneous injection to the flank. Tumors were allowed to reach an approximate volume of ˜500 mm^3. Animals were then randomized into treatment groups of 3 animals per time point and were dosed at 4 mg/kg. The 24 hour time point was used as a benchmark across compounds.
Tumors were excised from animals and dissolved in fuming nitric acid (60% w/w) by adding four parts nitric acid to 1 part tumor w/w and heating overnight at 60 degrees Centigrade. The resulting digest was diluted 1:10 in ICP-MS analysis buffer (1% nitric acid, 2% Triton x-100), and directly introduced into the ICP-MS unit by peristaltic pump. The end dilution factor for the samples as introduced to the ICP-MS was 50×.

Compound	Max DL, % [1] [%]	Max EE, % [1] [%]	platinum levels in the tumor, nanoparticle suspension versus free compound [2]	encapsulation efficiency (in words) ([1]; statement on Table 4)	maximum drug loading (in words) ([1]; statement on Table 4)
CCCCCC(=O)[O][Pt]([NH2])([NH2])([Cl])([Cl])[O]C(=O)CCCCC [reference compound]	0.55	2.8	–	–	–
CC(C)(C)CC(C)(C)NC(=O)[O][Pt]([NH2])([NH2])([Cl])([Cl])[O]C(=O)NC(C)(C)CC(C)(C)C [Compound 29]	5.9	59	higher platinum levels in the tumors when the corresponding compound was dosed as a nanoparticle suspension than as a free compound	increased encapsulation efficiency	increased maximum drug loading
